In assay [1] the test system is lymphedema-induced mouse. The assay can be described thus: Lymphedema reduction after subcutaneous injection for 5 days (leg images). The assay is classed as in vivo. As to conditions: compared to control group. The protocol:
(§1) As mice, Outbred Mice ICR originating from Charles River Laboratories (Wilmington, Mass.) were used. 3 μl of 2% methylene blue as a staining dye for staining lymph nodes and lymphatic vessels was injected into the top of a right foot. After the injection, the right foot was massaged for about 3 minutes to allow a flow of the staining dye through lymphatic vessels to stain the lymphatic system. Zoletil50 (0.6 mg/kg) and Rompun (0.4 mg/kg), which are commercially provided by Bayer Korea, were administered as anesthetic drugs at the maximum content of 100 μl by intraperitoneal injection.
Specifically, a mouse was anesthetized with the anesthetic drugs (Zoletil50, Rompun), and its chest was shaved to facilitate a surgical operation and suturing, and observation. A small amount (3 μl) of a 2% methylene blue solution was injected into the top of the right foot, and then the injected site was massaged for 3 minutes to allow the staining dye to spread well through the lymphatic vessels. To minimize inflammation which may be caused when lymph nodes in a groin region were excised and lymphatic vessels in a thigh were blocked, a minimum area of the right groin was incised open. Afterward, a superficial inguinal node and popliteal node, and a deep inguinal node, which were stained with methylene blue, were sequentially removed, and the stained lymphatic vessels in the right thigh were blocked using a soldering iron. Since 70 to 80% of the total lymphatic vessels were present in a subcutaneous region, the subcutaneous region in a suturing site was seared with the soldering iron to completely block the lymphatic system under the suturing site, and the right thigh was finally closed by suturing. About 3 days later, an increase in edema was confirmed.
Butein (15 mg/kg/day) was administered into an animal in which lymphedema was induced by lymph excision in Example 1 by subcutaneous injection for 5 days, and the result is shown in FIG. 3. […]

Assay [2] has as its system lipedema-induced mouse. Briefly: Lipedema size after injection into the edema site of lipedema-induced mice (caliper, thigh cross-sectional area). The assay is classed as in vivo. The settings on record: 15 mg/kg/day injected into edema site, measured every day, versus untreated experimental group. The protocol:
(§2) Lymph nodes were removed from a mouse leg by a similar method to the method described in Example 1 to induce lipedema in the experimental animal, and an increase in edema was confirmed about 3 days after the removal of the lymph nodes.
PBS (control) or butein (15 mg/kg/day) was injected into an edema site of the lipedema-induced mouse prepared in Example 5, and the edema size was measured every day.
A thigh area present between the knee and the trunk of the lipedema-induced site of the experimental animal was measured using a caliper. The cross-sectional area of lipedema was calculated from the width and length of the thigh and recorded, and thus a change in size of lipedema during observation was found.

The subject of assay [3] is lymphedema-induced mouse. Briefly: Lymphedema size after daily injection into the edema site of lymphedema-induced mice (caliper, thigh cross-sectional area). It is filed as in vivo. As to conditions: measured every day, compared to control group. The protocol:
as §1
Specifically, a mouse was anesthetized with the anesthetic drugs (Zoletil50, Rompun), and its chest was shaved to facilitate a surgical operation and suturing, and observation. A small amount (3 μl) of a 2% methylene blue solution was injected into the top of the right foot, and then the injected site was massaged for 3 minutes to allow the staining dye to spread well through the lymphatic vessels. […]
Each of PBS, hyaluronidase and butein was administered into an edema site of the mouse prepared in Example 1 at 15 mg per kg a day, and the size of edema was measured each day.
The cross-sectional area of lymphedema was calculated from the width and length of the thigh and recorded, and thus a change in size of lymphedema during observation was found.
Each of PBS, hyaluronidase and sulfuretin (15 mg/kg/day) was injected into an edema site of the mouse prepared in Example 1, and the size of edema was measured every day.
FIG. 8 illustrates the inhibition of lymphedema by sulfuretin, and the size measurement was performed on a thigh area present between the knee and the trunk of the lymphedema-induced site of the experimental animal using a caliper. The cross-sectional area of lymphedema was calculated from the width and length of the thigh and recorded, and thus a change in the lymphedema size that occurs in observation was found.
Each of PBS, hyaluronidase and isoflavone (100 mg/kg/day) was injected into an edema site of the mouse prepared in Example 1, and the size of edema was measured every day. […]

The test system of assay [4] is PPAR-γ mRNA. Briefly: PPAR-γ mRNA in lymphedema tissue by real time PCR. It is filed as in vivo, mouse. Here is the method:
as §1
Specifically, a mouse was anesthetized with the anesthetic drugs (Zoletil50, Rompun), and its chest was shaved to facilitate a surgical operation and suturing, and observation. […]
In this example, to investigate a mechanism for inducing reduction in lymphedema, expression of an adipocyte-related marker greatly found in edema was examined. […] An edema tissue was collected, and mRNAs of adipocyte markers such as PPAR-γ and aP2 that are greatly found in edema were quantitatively analyzed by real time PCR, the result of which is shown in FIG. 2 (normal control: control group in which edema was not induced (n=3), edema+PBS: group into which PBS was injected after edema induction (n=4), edema+butein: group into which butein was injected after edema induction (15 mg/kg/day) (n=5)). […]

Assay [5] relates to aP2 mRNA. Briefly: aP2 mRNA in lymphedema tissue by real time PCR. The assay is classed as in vivo, mouse. Here is the method:
as §1
Specifically, a mouse was anesthetized with the anesthetic drugs (Zoletil50, Rompun), and its chest was shaved to facilitate a surgical operation and suturing, and observation. A small amount (3 μl) of a 2% methylene blue solution was injected into the top of the right foot, and then the injected site was massaged for 3 minutes to allow the staining dye to spread well through the lymphatic vessels. To minimize inflammation which may be caused when lymph nodes in a groin region were excised and lymphatic vessels in a thigh were blocked, a minimum area of the right groin was incised open. […]
In this example, to investigate a mechanism for inducing reduction in lymphedema, expression of an adipocyte-related marker greatly found in edema was examined. […] An edema tissue was collected, and mRNAs of adipocyte markers such as PPAR-γ and aP2 that are greatly found in edema were quantitatively analyzed by real time PCR, the result of which is shown in FIG. […]
In this example, to investigate a mechanism for inducing reduction in lymphedema, expression of an adipocyte-related marker easily found in edema was examined. […] An edema tissue was collected, and mRNAs of adipocyte markers such as PPAR-γ and aP2, which are greatly found in edema, were quantitatively analyzed by real time PCR, and the result is shown in FIG. […]
(In qPCR the cycle at which signal appears reflects the starting amount.)

The test system of assay [6] is aP2 mRNA. Briefly: aP2 mRNA in lipedema tissue. The settings on record: butein injected for 14 days. It is filed as in vivo, mouse. The protocol: as §2
(§3) In this example, to investigate a mechanism for inducing the reduction of lipedema, expression of an adipocyte-related marker that is easily found in lipedema was examined. An edema tissue was isolated after butein was injected into lipedema for 14 days, and mRNAs of adipocyte markers, PPAR-γ and aP2, isolated from total RNA were quantified, and the result is shown in FIG. 7. Referring to FIG. 7, it could be confirmed that butein reduced the expression of PPAR-γ and aP2. Therefore, it can be seen that the inhibition of adipocytes by the butein administration has an influence on lipedema reduction.

Assay [7] has as its system PPAR-γ mRNA. Briefly: PPAR-γ mRNA in lipedema tissue. As to conditions: butein injected for 14 days. The assay is classed as in vivo, mouse. Here is the method:
as §2, §3

Setting [8] is: 15 mg/kg/day subcutaneous injection for 5 days.
[9] abbreviates: 15 mg/kg/day injected into edema site.

Each structure is given as a SMILES string.

For the compound `O=C(/C=C/c1ccc(O)c(O)c1)c1ccc(O)cc1O` [butein], the size of lymphedema entry in assay [1] (setting [8]) and in assay [3] (setting [9]) was “significantly reduced” in each case. Besides, the “edema size (lipedema)” value in assay [2] was “more rapidly and greatly reduced”. In addition, the “mRNA expression of PPAR-γ in edema tissue” value in assay [4] (15 mg/kg/day for 14 days) is given as “inhibits”; in assay [7] it was “reduced”. Further, the “mRNA expression of aP2 in edema tissue” value is “inhibits” in assay [5] (15 mg/kg/day for 14 days) and “reduced” in assay [6].
In the case of `O=c1c(-c2ccccc2)coc2ccccc12` [isoflavone], the size of lymphedema entry in assay [1] (100 mg/kg/day subcutaneous injection for 5 days) and in assay [3] (100 mg/kg/day injected into edema site) was “significantly reduced” each time. The “mRNA expression of PPAR-γ in edema tissue” value in assay [4] (100 mg/kg/day for 14 days) is listed as “inhibits”. The “mRNA expression of aP2 in edema tissue” value in assay [5] (100 mg/kg/day for 14 days) was “inhibits”.
For `O=C1/C(=C/c2ccc(O)c(O)c2)Oc2cc(O)ccc21` [sulfuretin], the size of lymphedema result in assay [1] (setting [8]) and in assay [3] (setting [9]) was “significantly reduced” in each case. Moreover, the “mRNA expression of aP2 in edema tissue” value in assay [5] (15 mg/kg/day for 14 days) is “inhibits”.

Values taken from patent US20160081974A1, “COMPOSITION FOR PREVENTING OR TREATING EDEMA CONTAINING FLAVONOID COMPOUND” (Research & Business Foundation SUNGKYUNKWAN UNIVERSITY, priority 2014, published 2016).
